Laboratory results reported in BindingDB's records for patent US9834551 (Arrien Pharmaceuticals, 2017).

Target: T1, Tyrosine-protein kinase JAK3 (Homo sapiens, UniProt P52333)
T1 sequence (P52333 whole entry): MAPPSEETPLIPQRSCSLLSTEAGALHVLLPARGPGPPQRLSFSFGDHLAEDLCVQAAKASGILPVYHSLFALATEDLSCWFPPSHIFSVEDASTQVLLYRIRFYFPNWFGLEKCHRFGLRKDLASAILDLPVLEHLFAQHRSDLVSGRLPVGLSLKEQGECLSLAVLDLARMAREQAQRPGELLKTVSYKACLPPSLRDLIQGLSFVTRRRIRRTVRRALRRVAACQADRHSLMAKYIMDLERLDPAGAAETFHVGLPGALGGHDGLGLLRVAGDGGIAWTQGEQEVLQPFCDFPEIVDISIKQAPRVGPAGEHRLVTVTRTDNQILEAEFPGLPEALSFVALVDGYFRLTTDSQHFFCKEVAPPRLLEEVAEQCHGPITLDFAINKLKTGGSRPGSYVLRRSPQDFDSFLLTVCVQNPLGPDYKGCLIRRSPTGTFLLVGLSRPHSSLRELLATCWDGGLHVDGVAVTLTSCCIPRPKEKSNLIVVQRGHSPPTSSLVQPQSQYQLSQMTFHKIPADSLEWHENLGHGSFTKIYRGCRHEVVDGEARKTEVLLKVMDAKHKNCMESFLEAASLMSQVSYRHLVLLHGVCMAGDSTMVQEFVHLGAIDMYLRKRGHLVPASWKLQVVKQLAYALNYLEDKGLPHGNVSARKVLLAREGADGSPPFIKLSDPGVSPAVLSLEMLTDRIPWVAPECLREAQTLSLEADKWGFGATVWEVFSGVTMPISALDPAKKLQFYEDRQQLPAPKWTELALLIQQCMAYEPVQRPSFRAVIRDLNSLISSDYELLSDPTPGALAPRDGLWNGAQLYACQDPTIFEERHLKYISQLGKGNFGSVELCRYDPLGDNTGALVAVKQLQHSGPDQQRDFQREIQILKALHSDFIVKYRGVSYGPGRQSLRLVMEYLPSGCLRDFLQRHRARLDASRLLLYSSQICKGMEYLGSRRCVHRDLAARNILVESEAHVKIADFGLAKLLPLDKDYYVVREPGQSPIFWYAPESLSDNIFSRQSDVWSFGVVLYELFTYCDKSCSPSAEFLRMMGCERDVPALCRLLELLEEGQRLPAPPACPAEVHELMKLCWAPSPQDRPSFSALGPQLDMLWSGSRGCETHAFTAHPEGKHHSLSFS
Experiment: In Vitro Inhibition Assay
Description: All additions were done on ice, followed by the addition of ATP mix. Wells were uniformly mixed using an Eppendorff plate shaker and incubated at 30° C. for 20 min, and stopped by the addition of 5 μL of 3% phosphoric acid. Volume was increased to 100 μL by adding 0.8% phosphoric acid which was then transferred to PC filter mats (Millipore), pre-equilibrated with 70% ethanol and water. Plates were washed thrice with 100 μL 0.8% phosphoric acid and dried for an hour at 60° C. 100 μL scintillation fluid was added into each well and reading taken in Perkin Elmer TOPCOUNT beta counter.

| IC50 | Compound |
| --- | --- |
| < 100 nM | C=CC(=O)Nc1cccc(-c2cnc3[nH]cc(-c4cccc(S(=O)(=O)N(CC)CC)c4)c3c2)c1 [US9834551, Example 28] |
| < 100 nM | C=CC(=O)Nc1cccc(-c2cnc3[nH]cc(-c4cccc(C)c4F)c3c2)c1 [US9834551, Example 148] |
